These results are taken from patent publication US8338565B2, “Macrocyclic compounds for inhibition of tumor necrosis factor alpha” (Ensemble Therapeutics Corporation, priority 2008, dated 2012).

Numbered stars: 1 amine (or outer) side, 2 acyl side, 3 side chain; on linkers, the order of the positions; unused ones are H or OH. Bridge positions count the residues as written; N and C are the ends. Square brackets hold non-standard residues; d marks the D form. Peptide text beside a SMILES is read from it. * marks the point of attachment. dPhe(3-CF3) = N[C@H](Cc1cccc(C(F)(F)F)c1)C(=O)O; dPhe(4-CF3) = N[C@H](Cc1ccc(C(F)(F)F)cc1)C(=O)O; dPhe(2-CF3) = N[C@H](Cc1ccccc1C(F)(F)F)C(=O)O; Bip = N[C@@H](Cc1ccc(-c2ccccc2)cc1)C(=O)O; dPhe(4-Cl) = N[C@H](Cc1ccc(Cl)cc1)C(=O)O; Phe(4-NH2) = Nc1ccc(C[C@H](N)C(=O)O)cc1; dPhe(2-Me) = Cc1ccccc1C[C@@H](N)C(=O)O; d(β3hF) = N[C@@H](CC(=O)O)Cc1ccccc1; dNMeF = CN[C@H](Cc1ccccc1)C(=O)O; Cha = N[C@@H](CC1CCCCC1)C(=O)O; d2Thi = N[C@H](Cc1cccs1)C(=O)O; d3Thi = N[C@H](Cc1ccsc1)C(=O)O; dPhg = N[C@@H](C(=O)O)c1ccccc1; Suc = O=C(CCC(=O)[*:2])[*:1]; Nphe = O=C(O)CNCc1ccccc1; OtBu = CC(C)(C)O*

The test deals with T1, TNFα / TNFα receptor (TNFα R1/Fc) (Homo sapiens, UniProt P01375).
T1 construct: purchased R&D Systems
T1 sequence (P01375 77-233 limits assumed, species assumed): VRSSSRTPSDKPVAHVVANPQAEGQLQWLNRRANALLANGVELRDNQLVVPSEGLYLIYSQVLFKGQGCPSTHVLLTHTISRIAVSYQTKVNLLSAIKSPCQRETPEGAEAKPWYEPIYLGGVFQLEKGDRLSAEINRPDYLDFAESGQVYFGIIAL
In words: Inhibition of binding of TNFα to the TNFα receptor (plate ELISA competition). The conditions noted are these: Table 2; read-out: Activity (IC50, inhibition of TNFα binding to TNFα R1/Fc). As to the method:
The compounds listed in Table 2 below were assayed for ability to inhibit binding of TNFα to the TNFα receptor (TNFα R1/Fc). The assays were performed as described in the following procedure: TNFα (R&D Systems) was coated on high binding plate wells (Corning 96-well) at a single uniform concentration of 15 nM, 100 μL/well in PBS. The coating proceeded for 30 minutes at 37° C. then 10 minutes at 4° C. The coated plate was washed with PBST, then 250 μL/well of blocking solution (PBST 0.1% BSA, bovine serum albumin) was added and incubation proceeded for 30-45 minutes at room temperature with agitation. The solution phase competition proceeded separately with the dilutions of test compound in PBST (phosphate buffered saline with Tween 20), 2% DMSO in a polypropylene plate (Corning 96-well storage plate) with a single concentration, 8.33 nM of the high affinity receptor for TNFα (R&D Systems). This solution phase incubation proceeded for 30 minutes at room temperature with agitation and was then added to the washed TNFα coated assay plate, 100 μL/well, and was incubated for a further 30 minutes at room temperature with agitation. The assay plate was washed and 100 μL goat anti-human IgG (Fc) HRP labeled antibody in PBST, 13 pM, (KPL Cat#04-10-2) was added to each well. This incubation proceeded for 25-30 minutes at room temperature with agitation. Following this incubation step, the plate was washed and a 100 μL TMB solution (SUREBLUE™ TMB Peroxidase substrate, KPL) was added per well and allowed to stand approximately 3-5 minutes for development. The TMB reaction was stopped with the addition of 0.5N HCl and then the plate was read for absorbance at 450 nm.
A general note: ELISA stands for enzyme-linked immunosorbent assay.
As to `CC(C)C[C@@H]1NC(=O)[C@H](Cc2ccc(-c3ccccc3)cc2)NC(=O)[C@@H](Cc2cccs2)NC(=O)CCC(=O)Nc2ccc(cc2)C[C@@H](C(=O)O)NC1=O` [Compound 54] ([d2Thi][Bip]L[Phe(4-NH2)]-OH; linker N-4 via Suc), the IC50 was more than 100 µM. `O=C1CCC(=O)N[C@H](Cc2cccs2)C(=O)N[C@@H](Cc2ccc(-c3ccccc3)cc2)C(=O)N(Cc2ccccc2)CC(=O)N[C@H](C(=O)O)Cc2ccc(cc2)N1` [Compound 55] ([d2Thi][Bip][Nphe][Phe(4-NH2)]-OH; linker N-4 via Suc): the IC50 is more than 100 µM.

Turning to `O=C1CCC(=O)N[C@H](Cc2cccs2)C(=O)N[C@@H](Cc2ccc(-c3ccccc3)cc2)C(=O)N[C@H](Cc2ccccc2)CC(=O)N[C@H](C(=O)O)Cc2ccc(cc2)N1` [Compound 56] ([d2Thi][Bip][d(β3hF)][Phe(4-NH2)]-OH; linker N-4 via Suc), the IC50 was more than 100 µM. The same measure for `CN1C(=O)[C@H](Cc2ccc(-c3ccccc3)cc2)NC(=O)[C@@H](Cc2cccs2)NC(=O)CCC(=O)Nc2ccc(cc2)C[C@@H](C(=O)O)NC(=O)[C@H]1Cc1ccccc1` [Compound 57] ([d2Thi][Bip][dNMeF][Phe(4-NH2)]-OH; linker N-4 via Suc): more than 100 µM. The same measure for `O=C1CCC(=O)N[C@H](Cc2cccs2)C(=O)N[C@@H](Cc2ccc(-c3ccccc3)cc2)C(=O)N[C@@H](Cc2ccc(O)cc2)C(=O)N[C@H](C(=O)O)Cc2ccc(cc2)N1` [Compound 58] ([d2Thi][Bip]Y[Phe(4-NH2)]-OH; linker N-4 via Suc): more than 100 µM. The same measure for `O=C1CCC(=O)N[C@H](Cc2cccs2)C(=O)N[C@@H](Cc2ccc(-c3ccccc3)cc2)C(=O)N[C@H](Cc2ccc(O)cc2)C(=O)N[C@H](C(=O)O)Cc2ccc(cc2)N1` [Compound 59] ([d2Thi][Bip][dY][Phe(4-NH2)]-OH; linker N-4 via Suc): more than 100 µM; for `O=C1CCC(=O)N[C@H](Cc2cccs2)C(=O)N[C@@H](Cc2ccc(-c3ccccc3)cc2)C(=O)N[C@@H](CO)C(=O)N[C@H](C(=O)O)Cc2ccc(cc2)N1` [Compound 60] ([d2Thi][Bip]S[Phe(4-NH2)]-OH; linker N-4 via Suc): more than 100 µM; for `O=C1CCC(=O)N[C@H](Cc2cccs2)C(=O)N[C@@H](Cc2ccc(-c3ccccc3)cc2)C(=O)N[C@H](CO)C(=O)N[C@H](C(=O)O)Cc2ccc(cc2)N1` [Compound 61] ([d2Thi][Bip][dS][Phe(4-NH2)]-OH; linker N-4 via Suc): more than 100 µM.

Turning to `CC(C)(C)OC(=O)C[C@@H]1NC(=O)[C@H](Cc2ccc(-c3ccccc3)cc2)NC(=O)[C@@H](Cc2cccs2)NC(=O)CCC(=O)Nc2ccc(cc2)C[C@@H](C(=O)O)NC1=O` [Compound 62] ([d2Thi][Bip]D(OtBu)[Phe(4-NH2)]-OH; linker N-4 via Suc), the IC50 was more than 100 µM.

On to `CC(C)(C)OC(=O)C[C@H]1NC(=O)[C@H](Cc2ccc(-c3ccccc3)cc2)NC(=O)[C@@H](Cc2cccs2)NC(=O)CCC(=O)Nc2ccc(cc2)C[C@@H](C(=O)O)NC1=O` [Compound 63] ([d2Thi][Bip][dD](OtBu)[Phe(4-NH2)]-OH; linker N-4 via Suc), for which the IC50 was more than 100 µM. The figure for `O=C(O)C[C@@H]1NC(=O)[C@H](Cc2ccc(-c3ccccc3)cc2)NC(=O)[C@@H](Cc2cccs2)NC(=O)CCC(=O)Nc2ccc(cc2)C[C@@H](C(=O)O)NC1=O` [Compound 64] ([d2Thi][Bip]D[Phe(4-NH2)]-OH; linker N-4 via Suc) is more than 100 µM; for `O=C(O)C[C@H]1NC(=O)[C@H](Cc2ccc(-c3ccccc3)cc2)NC(=O)[C@@H](Cc2cccs2)NC(=O)CCC(=O)Nc2ccc(cc2)C[C@@H](C(=O)O)NC1=O` [Compound 65] ([d2Thi][Bip][dD][Phe(4-NH2)]-OH; linker N-4 via Suc) it is more than 100 µM. As to `CC(C)(C)OC(=O)CC[C@@H]1NC(=O)[C@H](Cc2ccc(-c3ccccc3)cc2)NC(=O)[C@@H](Cc2cccs2)NC(=O)CCC(=O)Nc2ccc(cc2)C[C@@H](C(=O)O)NC1=O` [Compound 66] ([d2Thi][Bip]E(OtBu)[Phe(4-NH2)]-OH; linker N-4 via Suc), the IC50 was more than 100 µM. The figure for `CC(C)(C)OC(=O)CC[C@H]1NC(=O)[C@H](Cc2ccc(-c3ccccc3)cc2)NC(=O)[C@@H](Cc2cccs2)NC(=O)CCC(=O)Nc2ccc(cc2)C[C@@H](C(=O)O)NC1=O` [Compound 67] ([d2Thi][Bip][dE](OtBu)[Phe(4-NH2)]-OH; linker N-4 via Suc) is 30 to 100 µM; for `O=C(O)CC[C@@H]1NC(=O)[C@H](Cc2ccc(-c3ccccc3)cc2)NC(=O)[C@@H](Cc2cccs2)NC(=O)CCC(=O)Nc2ccc(cc2)C[C@@H](C(=O)O)NC1=O` [Compound 68] ([d2Thi][Bip]E[Phe(4-NH2)]-OH; linker N-4 via Suc) it is more than 100 µM; for `O=C(O)CC[C@H]1NC(=O)[C@H](Cc2ccc(-c3ccccc3)cc2)NC(=O)[C@@H](Cc2cccs2)NC(=O)CCC(=O)Nc2ccc(cc2)C[C@@H](C(=O)O)NC1=O` [Compound 69] ([d2Thi][Bip][dE][Phe(4-NH2)]-OH; linker N-4 via Suc) it is more than 100 µM. As to `N=C(N)NCCC[C@@H]1NC(=O)[C@H](Cc2ccc(-c3ccccc3)cc2)NC(=O)[C@@H](Cc2cccs2)NC(=O)CCC(=O)Nc2ccc(cc2)C[C@@H](C(=O)O)NC1=O` [Compound 72] ([d2Thi][Bip]R[Phe(4-NH2)]-OH; linker N-4 via Suc), the IC50 is more than 100 µM. The same measure for `N=C(N)NCCC[C@H]1NC(=O)[C@H](Cc2ccc(-c3ccccc3)cc2)NC(=O)[C@@H](Cc2cccs2)NC(=O)CCC(=O)Nc2ccc(cc2)C[C@@H](C(=O)O)NC1=O` [Compound 73] ([d2Thi][Bip][dR][Phe(4-NH2)]-OH; linker N-4 via Suc): more than 100 µM; for `O=C1CCC(=O)N[C@H](Cc2cccs2)C(=O)N[C@@H](Cc2ccc(-c3ccccc3)cc2)C(=O)N[C@H](Cc2cccs2)C(=O)N[C@H](C(=O)O)Cc2ccc(cc2)N1` [Compound 74] ([d2Thi][Bip][d2Thi][Phe(4-NH2)]-OH; linker N-4 via Suc): 30 to 100 µM; for `O=C1CCC(=O)N[C@H](Cc2cccs2)C(=O)N[C@@H](Cc2ccc(-c3ccccc3)cc2)C(=O)N[C@H](Cc2ccsc2)C(=O)N[C@H](C(=O)O)Cc2ccc(cc2)N1` [Compound 75] ([d2Thi][Bip][d3Thi][Phe(4-NH2)]-OH; linker N-4 via Suc): 30 to 100 µM.

In the case of `O=C1CCC(=O)N[C@H](Cc2cccs2)C(=O)N[C@@H](Cc2ccc(-c3ccccc3)cc2)C(=O)N[C@H](c2ccccc2)C(=O)N[C@H](C(=O)O)Cc2ccc(cc2)N1` [Compound 76] ([d2Thi][Bip][dPhg][Phe(4-NH2)]-OH; linker N-4 via Suc), the IC50 was in the range of 10 to 30 µM.

Take `O=C1CCC(=O)N[C@H](Cc2cccs2)C(=O)N[C@@H](Cc2ccc(-c3ccccc3)cc2)C(=O)N[C@H](Cc2ccccc2C(F)(F)F)C(=O)N[C@H](C(=O)O)Cc2ccc(cc2)N1` [Compound 77] ([d2Thi][Bip][dPhe(2-CF3)][Phe(4-NH2)]-OH; linker N-4 via Suc): the IC50 fell in the range of 30 to 100 µM. The figure for `O=C1CCC(=O)N[C@H](Cc2cccs2)C(=O)N[C@@H](Cc2ccc(-c3ccccc3)cc2)C(=O)N[C@H](Cc2cccc(C(F)(F)F)c2)C(=O)N[C@H](C(=O)O)Cc2ccc(cc2)N1` [Compound 78] ([d2Thi][Bip][dPhe(3-CF3)][Phe(4-NH2)]-OH; linker N-4 via Suc) is more than 100 µM; for `O=C1CCC(=O)N[C@H](Cc2cccs2)C(=O)N[C@@H](Cc2ccc(-c3ccccc3)cc2)C(=O)N[C@H](Cc2ccc(C(F)(F)F)cc2)C(=O)N[C@H](C(=O)O)Cc2ccc(cc2)N1` [Compound 79] ([d2Thi][Bip][dPhe(4-CF3)][Phe(4-NH2)]-OH; linker N-4 via Suc) it is more than 100 µM; for `Cc1ccccc1C[C@H]1NC(=O)[C@H](Cc2ccc(-c3ccccc3)cc2)NC(=O)[C@@H](Cc2cccs2)NC(=O)CCC(=O)Nc2ccc(cc2)C[C@@H](C(=O)O)NC1=O` [Compound 80] ([d2Thi][Bip][dPhe(2-Me)][Phe(4-NH2)]-OH; linker N-4 via Suc) it is more than 100 µM.

Turning to `O=C1CCC(=O)N[C@H](Cc2cccs2)C(=O)N[C@@H](Cc2ccc(-c3ccccc3)cc2)C(=O)N[C@H](Cc2ccc(Cl)cc2)C(=O)N[C@H](C(=O)O)Cc2ccc(cc2)N1` [Compound 81] ([d2Thi][Bip][dPhe(4-Cl)][Phe(4-NH2)]-OH; linker N-4 via Suc), the IC50 was more than 100 µM. The figure for `O=C1CCC(=O)N[C@H](Cc2cccs2)C(=O)N[C@@H](Cc2ccccc2)C(=O)N[C@H](Cc2ccccc2)C(=O)N[C@H](C(=O)O)Cc2ccc(cc2)N1` [Compound 83] ([d2Thi]F[dF][Phe(4-NH2)]-OH; linker N-4 via Suc) is more than 100 µM.

In the case of `O=C1CCC(=O)N[C@H](Cc2cccs2)C(=O)N[C@@H](CC2CCCCC2)C(=O)N[C@H](Cc2ccccc2)C(=O)N[C@H](C(=O)O)Cc2ccc(cc2)N1` [Compound 84] ([d2Thi][Cha][dF][Phe(4-NH2)]-OH; linker N-4 via Suc), the IC50 is more than 100 µM.
